This passage reports IC50 results from US8778951B2, “Heteroaryl compounds and their uses” (Novartis AG, priority 2009, dated 2014).

This assay deals with Cdk9/cyclinT1 (Homo sapiens (Human), UniProt P50750). Put plainly: Cdk9/CyclinT1 IMAP Protocol (fluorescence polarization kinase assay). The format is biochemical. The settings on record: Table 2; generated using one of the two Cdk9/cyclinT1 assays (IMAP or Alpha Screen), not specified which; unit inferred. How it is done: Cdk9/CyclinT1 IMAP Protocol
Sequence of Cdk9/cyclinT1 (P50750 whole entry): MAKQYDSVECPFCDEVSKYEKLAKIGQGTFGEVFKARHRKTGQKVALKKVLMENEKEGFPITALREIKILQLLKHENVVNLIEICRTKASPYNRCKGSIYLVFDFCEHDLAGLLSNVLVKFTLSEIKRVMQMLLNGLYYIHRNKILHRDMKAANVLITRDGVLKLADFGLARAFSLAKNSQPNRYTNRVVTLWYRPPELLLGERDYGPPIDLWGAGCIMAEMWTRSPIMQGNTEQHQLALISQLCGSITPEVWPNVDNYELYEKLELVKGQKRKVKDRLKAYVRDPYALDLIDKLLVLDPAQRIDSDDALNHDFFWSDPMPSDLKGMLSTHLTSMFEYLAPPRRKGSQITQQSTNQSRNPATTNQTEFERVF
Sequence of Cdk9/cyclinT1 (O60563 whole entry partner): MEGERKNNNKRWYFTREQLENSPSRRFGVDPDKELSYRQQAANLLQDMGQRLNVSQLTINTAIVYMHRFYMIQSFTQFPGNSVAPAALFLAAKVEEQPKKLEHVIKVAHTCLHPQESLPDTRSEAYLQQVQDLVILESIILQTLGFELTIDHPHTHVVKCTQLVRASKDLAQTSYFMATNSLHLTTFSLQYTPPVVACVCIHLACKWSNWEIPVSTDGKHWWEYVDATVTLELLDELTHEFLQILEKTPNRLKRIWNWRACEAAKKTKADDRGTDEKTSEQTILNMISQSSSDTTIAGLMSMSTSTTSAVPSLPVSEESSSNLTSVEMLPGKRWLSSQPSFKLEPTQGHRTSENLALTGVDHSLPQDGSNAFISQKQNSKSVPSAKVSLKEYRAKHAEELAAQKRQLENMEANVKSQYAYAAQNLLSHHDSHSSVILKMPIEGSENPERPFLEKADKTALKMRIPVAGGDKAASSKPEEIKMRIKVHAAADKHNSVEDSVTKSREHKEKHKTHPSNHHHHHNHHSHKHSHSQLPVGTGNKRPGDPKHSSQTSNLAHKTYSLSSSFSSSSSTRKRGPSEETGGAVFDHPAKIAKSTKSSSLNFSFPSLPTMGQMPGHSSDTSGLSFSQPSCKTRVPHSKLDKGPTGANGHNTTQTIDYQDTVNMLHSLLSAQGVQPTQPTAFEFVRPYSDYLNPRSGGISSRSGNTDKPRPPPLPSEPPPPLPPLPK
The biological activity of the compounds of the invention can be determined using the assay described below.
Cdk9/cyclinT1 is purchased from Millipore, cat #14-685. The final total protein concentration in the assay 4 nM. […] The final concentration of peptide substrate is 100 nM. The ATP substrate (Adenosine-5′-triphosphate) is purchased from Roche Diagnostics, cat#1140965. The final concentration of ATP substrate is 6 uM. IMAP (Immobilized Metal Assay for Phosphochemicals) Progressive Binding reagent is purchased from Molecular Devices, cat#R8139. Fluorescence polarization (FP) is used for detection. The 5TAMRA-cdk7tide peptide is phosphorylated by Cdk9/cyclinT1 kinase using the ATP substrate. The Phospho-5TAMRA-cdk7tide peptide substrate is bound to the IMAP Progressive Binding Reagent. The binding of the IMAP Progressive Binding Reagent changes the fluorescence polarization of the 5TAMRA-cdk7tide peptide which is measured at an excitation of 531 nm and FP emission of 595 nm. Assays are carried out in 100 mM Tris, pH=7.2, mM MgCl2, 0.05% NaN3, 0.01% Tween-20, 1 mM dithiothreitol and 2.5% dimethyl sulfoxide. IMAP Progressive Binding Reagent is diluted 1:800 in 100% 1× Solution A from Molecular Devices, cat#R7285.
General protocol is as follows: To 10 ul of cdk9/cyclinT1, 0.5 ul of test compound in dimethyl sulfoxide is added. 5TAMRA-cdk7tide and ATP are mixed. 10 ul of the 5TAMRA-cdk7tide/ATP mix is added to start the reaction. The reaction is allowed to proceed for 4.5 hrs. 60 uL of IMAP Progressive Binding Reagent is added. After >1 hr of incubation, plates are read on the Envision 2101 from Perkin-Elmer. The assay is run in a 384-well format using black Corning plates, cat#3573.
Background: Fluorescence polarisation rises when a labelled molecule tumbles more slowly, as on binding a larger partner.
A word on the IC50: it is the concentration that gives 50% inhibition. A low value points to inhibition by little substance. `OCCNc1cc(-c2cncc(NCC3CCOCC3)n2)c(Cl)cn1` [Compound 210] yielded an IC50 of 86 nM. In the case of `Clc1cnc(N[C@H]2CCCNC2)cc1-c1cccc(NCC2CCOCC2)n1` [Compound 96] it was 1280 nM; in that of `Fc1cccc(CNc2cccc(-c3cc(N[C@H]4CC[C@H](N5CCCCC5)CC4)ncc3Cl)n2)c1` [Compound 115], 7.95 nM; in that of `COCCN[C@H]1CC[C@H](Nc2cc(-c3ccc(F)c(NCC4CCOCC4)n3)c(Cl)cn2)CC1` [Compound 314], 1 nM. In the case of `OCCNc1cc(-c2cccc(NCc3cccc(F)c3)n2)c(Cl)cn1` [Compound 160] it was 19 nM; in that of `Fc1cccc(CNc2cccc(-c3cc(N[C@H]4CC[C@H](CN5CCCC5)CC4)ncc3Cl)n2)c1` [Compound 112], 27.3 nM; in that of `CC1(CNc2cccc(-c3cc(N[C@H]4CC[C@H](N)CC4)ncc3Cl)n2)CCOCC1` [Compound 311, N2′-(trans-4-aminocyclohexyl)-5′-chloro-N6-((4-methyltetrahydro-2H-pyran-4-yl)methyl)-2,4′-bipyridine-2′,6-diamine], 1 nM. The value for `NCC(O)CNc1cc(-c2cccc(NCc3cccc(F)c3)n2)c(Cl)cn1` (stereo not drawn) [Compound 195] was 35.6 nM; that for `NC[C@H]1CC[C@H](Nc2cc(-c3cccc(NCc4cccc(Cl)c4)n3)c(Cl)cn2)CC1` [Compound 62] was 7.95 nM. `N[C@H]1CC[C@H](Nc2cc(-c3cccc(NCc4cccc(F)c4)n3)c(Cl)cn2)CC1` [Compound 1, N2′-(trans-4-aminocyclohexyl)-5′-chloro-N6-(3-fluorobenzyl)-2,4′-bipyridine-2′,6-diamine] showed an IC50 of 7.95 nM. `N[C@H]1CC[C@@H](Nc2cc(-c3cccc(NCc4cccc(F)c4)n3)c(Cl)cn2)CC1` [Compound 139] gave an IC50 of 30.1 nM. Compound `O=S1(=O)CCC(N[C@H]2CC[C@H](Nc3cc(-c4ccc(F)c(NCC5CCOCC5)n4)c(Cl)cn3)CC2)C1` (stereo partly drawn) [Compound 322] returned an IC50 of 3 nM. The compound `CC1(C)CC(CNc2ccc(Cl)c(-c3cc(N[C@H]4CC[C@H](NC[C@H](O)C(F)(F)F)CC4)ncc3Cl)n2)CCO1` (stereo partly drawn) [Compound 298, (2S)-3-(trans-4-(3,5′-dichloro-6-((2,2-dimethyltetrahydro-2H-pyran-4-yl)methyl)amino-2,4′-bipyridin-2′-yl-amino)cyclohexylamino)-1,1,1-trifluoropropan-2-ol] registered an IC50 of 1 nM. In the case of `CN1CCC(Nc2cc(-c3cccc(NCc4cccc(F)c4)n3)c(Cl)cn2)CC1` [Compound 103] it was 134 nM; in that of `CC(=O)N1CCC[C@@H](CNc2cccc(-c3cc(N[C@H]4CC[C@H](N)CC4)ncc3Cl)n2)C1` [Compound 217], 37.3 nM; in that of `Fc1cccc(CNc2cccc(-c3cc(N[C@@H]4CCCNC4)ncc3Cl)n2)c1` [Compound 91], 336 nM. `COCCN(C)[C@H]1CC[C@H](Nc2cc(-c3nc(NCC4CCOCC4)ccc3Cl)c(Cl)cn2)CC1` [Compound 272, 3,5′-dichloro-N2′-(trans-4-((2-methoxyethyl)(methyl)amino)cyclohexyl)-N6-((tetrahydro-2H-pyran-4-yl)methyl)-2,4′-bipyridine-2′,6-diamine]: the IC50 came to 7.94 nM.

Consider `N[C@H]1CC[C@H](Nc2cc(-c3cnc(Cl)c(NCC4CCOCC4)n3)c(Cl)cn2)CC1` [Compound 221], for which the IC50 is 7.95 nM. The compound `COC[C@@H](C)N[C@H]1CC[C@H](Nc2cc(-c3cccc(NCC4COC(C)(C)CO4)n3)c(Cl)cn2)CC1` (stereo partly drawn) [Compound 307, 5′-chloro-N6-((5,5-dimethyl-1,4-dioxan-2-yl)methyl)-N2′-(trans-4-((R)-1-methoxypropan-2-yl-amino)cyclohexyl)-2,4′-bipyridine-2′,6-diamine] returned an IC50 of 8 nM. With `CN1CCN(C[C@H]2CC[C@H](Nc3cc(-c4cccc(NCc5cccc(F)c5)n4)c(Cl)cn3)CC2)CC1` [Compound 111], the IC50 amounted to 30.8 nM. The value for `N[C@H]1CC[C@H](Nc2cc(-c3nc(NCC4CCOCC4)c(F)cc3F)c(Cl)cn2)CC1` [Compound 318] was 0.26 nM; that for `CN(C)CC(=O)N[C@H]1CC[C@H](Nc2cc(-c3cccc(NCc4cccc(F)c4)n3)c(Cl)cn2)CC1` [Compound 7, N-(trans-4-(5′-chloro-6-(3-fluorobenzylamino)-2,4′-bipyridin-2′-yl-amino)cyclohexyl)-2-(dimethylamino)acetamide] was 24.8 nM; that for `COC[C@@H](C)N[C@H]1CC[C@H](Nc2cc(-c3nc(NC[C@H]4CCCOC4)ccc3Cl)c(Cl)cn2)CC1` [Compound 327, 3,5′-dichloro-N2′-(trans-4-((R)-1-methoxypropan-2-yl-amino)cyclohexyl)-N6-(((R)-tetrahydro-2H-pyran-3-yl)methyl)-2,4′-bipyridine-2′,6-diamine] was 1 nM. In the case of `[2H]C([2H])(Nc1cccc(-c2cc(N[C@H]3CC[C@H](NC[C@@H]4CCCO4)CC3)ncc2Cl)n1)C1CCOCC1` [Compound 317, 5′-chloro-N6-(dideutero-(tetrahydro-2H-pyran-4-yl)methyl)-N2′-(trans-4-(((S)-tetrahydrofuran-2-yl)methyl)aminocyclohexyl)-2,4′-bipyridine-2′,6-diamine] it was 99 nM.

`O[C@H]1CC[C@H](Nc2cc(-c3cccc(NCC4CCCOC4)n3)c(Cl)cn2)CC1` (stereo partly drawn) [Compound 128] registered an IC50 of 33.4 nM. `N[C@H]1CC[C@H](Nc2cc(-c3cccc(NCc4cccc(Br)c4)n3)c(Cl)cn2)CC1` [Compound 48] showed an IC50 of 7.94 nM. Compound `NC(=O)c1ccc(-c2cc(N[C@H]3CC[C@H](N)CC3)ncc2Cl)nc1NCc1cccc(F)c1` [Compound 138] yielded a half-maximal inhibitory concentration (IC50) of 522 nM. The value for `Fc1cncc(CNc2cccc(-c3cc(NC4CCNCC4)ncc3Cl)n2)c1` [Compound 70] was 173 nM. In the case of `COC[C@@H](C)N[C@H]1CC[C@H](Nc2cc(-c3ccc(C(F)(F)F)c(NCC4CCOCC4)n3)c(Cl)cn2)CC1` [Compound 308] it was 1 nM; in that of `CN1CCC[C@H]1C(=O)NC[C@H]1CC[C@H](Nc2cc(-c3cccc(NCc4cccc(F)c4)n3)c(Cl)cn2)CC1` [Compound 83], 11.6 nM. The value for `N[C@H]1CC[C@H](Nc2cc(-c3cccc(NCC4CCCCC4)n3)ccn2)CC1` [Compound 2, N2′-(trans-4-aminocyclohexyl)-N6-(cyclohexylmethyl)-2,4′-bipyridine-2′,6-diamine] was 25.6 nM; that for `N[C@H]1CC[C@H](Nc2cc(-c3cccc(NCc4ccccc4Cl)n3)c(Cl)cn2)CC1` [Compound 42] was 48.1 nM.

`CN(Cc1cccc(F)c1)c1cccc(-c2cc(N[C@H]3CC[C@H](N)CC3)ncc2Cl)n1` [Compound 77] yielded an IC50 of 7.95 nM. In the case of `N[C@H]1CC[C@H](Nc2cc(-c3cccc(NCc4cc(F)cc(F)c4)n3)c(Cl)cn2)CC1` [Compound 29] it was 7.95 nM; in that of `Fc1cccc(CNc2cccc(-c3cc(NCCN4CCNCC4)ncc3Cl)n2)c1` [Compound 168], 37 nM; in that of `O[C@H]1CC[C@H](Nc2cc(-c3cccc(N4CCOCC4)n3)c(Cl)cn2)CC1` [Compound 131], 470 nM. The compound `N[C@@H]1CC[C@@H](Nc2cc(-c3cccc(NCc4cccc(F)c4)n3)c(Cl)cn2)C1` [Compound 191, N2′-((1R,3R)-3-aminocyclopentyl)-5′-chloro-N6-(3-fluorobenzyl)-2,4′-bipyridine-2′,6-diamine] registered an IC50 of 7.94 nM. The value for `Fc1cccc(CNc2cccc(-c3cc(NC4CCCCC4)ncc3Cl)n2)c1` [Compound 141] was 205 nM. As for `N[C@H]1CC[C@H](Nc2cc(-c3cccc(NCC4CCCCC4)n3)c(Cl)cn2)CC1` [Compound 24], the IC50 was 12.4 nM.

In turn, `COC[C@@H](C)N[C@H]1CC[C@H](Nc2cc(-c3ccc(F)c(NCC4CCOCC4)n3)c(Cl)cn2)CC1` [Compound 294] had an IC50 of 1 nM. In the case of `N[C@H]1CC[C@H](Nc2cc(-c3cccc(NCc4cccnc4)n3)c(Cl)cn2)CC1` [Compound 26] it was 16.3 nM; in that of `O=S1(=O)CCC(CN[C@H]2CC[C@H](Nc3cc(-c4ccc(F)c(NCC5CCOCC5)n4)c(Cl)cn3)CC2)CC1` [Compound 331], 1 nM.

For `Fc1cccc(CNc2cccc(-c3cc(N[C@H]4CC[C@H](N5CCOCC5)CC4)ncc3Cl)n2)c1` [Compound 116], the IC50 came to 7.95 nM. The compound `NCCCCNc1cc(-c2cccc(NCc3cc(F)cc(F)c3)n2)c(Cl)cn1` [Compound 188] registered an IC50 of 7.94 nM. `O=C(NC[C@H]1CC[C@H](Nc2cc(-c3cccc(NCc4cccc(F)c4)n3)c(Cl)cn2)CC1)c1cccnc1` [Compound 84] had a concentration for half-maximal inhibition (IC50) of 14.1 nM.
